Measured values published in PMC11130353, “Using host-mimicking conditions and a murine cutaneous abscess model to identify synergistic antibiotic combinations effective against Pseudomonas aeruginosa” (Frontiers in Cellular and Infection Microbiology, 2024).
≈ marks a conversion by molar mass, not a printed value. Like-named read-outs stand apart in the source and are kept apart here.

How the values were obtained:
P. aeruginosa LESB58 [1] = experiment: microbe, parasite or virus in culture; assay type: cell-based, Pseudomonas aeruginosa; settings: for MIC in MHB / MIC in TCM: 20-24 h; for MIC: Pseudomonas aeruginosa; for MIC in TCM: TCM (DMEM + 1% glucose + 5% FBS)
Experimental: (§1) For susceptibility testing under standard conditions, bacteria were cultured in Muller Hinton Broth MHB (Fort Richards Laboratories). […] Further susceptibility testing was also conducted in MHB supplemented with FBS (5% v/v) and DMEM supplemented with glucose (1% w/v) and MHB (10% v/v).
The minimum inhibitory concentration (MIC) of each antibiotic was determined using the broth microdilution method in 96-well plates. […] Briefly, antibiotics were two-fold serially diluted in MHB or TCM prior to adding 1 × 10^6 CFU mL^-1 bacteria. […] The MIC was recorded as the lowest antibiotic concentration with no visible growth and the median value of at least three biological replicates reported.

P. aeruginosa LESB58 [2] = experiment: Minimum bactericidal concentration; assay type: cell-based; settings: Pseudomonas aeruginosa
Experimental: (§2) For susceptibility testing under standard conditions, bacteria were cultured in Muller Hinton Broth MHB (Fort Richards Laboratories). Host mimicking conditions in vitro were simulated using tissue culture medium (TCM) consisting of Dulbecco’s modified Eagle medium (DMEM; Gibco #11965) supplemented with FBS (Moregate Biotech) (5% v/v) and glucose (1% w/v). Further susceptibility testing was also conducted in MHB supplemented with FBS (5% v/v) and DMEM supplemented with glucose (1% w/v) and MHB (10% v/v).
The minimum bactericidal concentration (MBC) was determined by spotting 5 μL from wells of the MIC plate at or above the MIC onto antibiotic free dYT agar. Plates were incubated at 37°C for another 22-24 hours. The MBC was recorded as the lowest antibiotic concentration with no visible growth on agar plates and the median value reported.

P. aeruginosa LESB58-lux = experiment: In vitro synergy, checkerboard assay (luminescence readout); assay type: cell-based, Pseudomonas aeruginosa; settings: TCM, LESB58-lux
Experimental: as §2
The P. aeruginosa LESB58.lux strain was used for in vitro synergy experiments with azithromycin in MHB and all antibiotic combinations in TCM to determine bacterial growth (as visual inspection and absorbance measurements were unreliable). Synergy was determined using the checkerboard method ([Berenbaum, 1978]; [Pletzer and Hancock, 2018]) in at least triplicate. Each antibiotic was two-fold serially diluted in sterile water before transferring to a 96-well plate containing 1 × 10^6 CFU mL^-1 bacteria in MHB or TCM. Plates were incubated at 37°C for 22-24 hours. The MIC alone or in combination was recorded as the lowest antibiotic concentration with no visible growth. For experiments using the LESB58.lux strain no visible growth was defined as an at least 95% reduction compared to the no antibiotic growth control in luminescence detected using a ClarioStar plate reader. The fractional inhibitory concentration index (FICI) was calculated as [(MICA in combination)/MICA] + [(MICB in combination)/MICB]. FICI values of 0.5 or below indicated synergy, while values above 0.5 up to and including 1 were taken to indicate additivity. FICI values above 1 indicate indifference or antagonism ([Odds, 2003]).

[3] = female, Swiss Webster, mouse, in vivo, sc, 1 day
Experimental: Mice used in this study were female Swiss Webster aged approximately 6-7 weeks and sourced from the University of Otago Biomedical Research Facility. […] Briefly, the fur on the back of each mouse was removed by shaving and chemical depilation. Antibiotics were tested for skin toxicity by injecting 50 μL of antibiotic suspension subcutaneously into naïve mice, and subsequent inspection of the skin for inflammation on the next day. P. aeruginosa LESB58 was grown to mid-log phase in dYT broth, washed twice in sterile PBS (Gibco, pH 7.4), and resuspended in PBS to ~1 x 10^8 CFU per 50 μL inoculum. The bacterial suspension (50 μL) was injected subcutaneously into the right side of the dorsum, followed one hour later by 50 μL of antibiotic treatment injected directly into the infected area. […] Combination treatments were administered as a single 50 μL injection containing both antibiotics. The concentration of each antibiotic in the combination was the same as when it was used alone. Progression of the infection was monitored daily, and abscess dimensions were measured on day three using a calliper. On day three, abscess tissue and pus were excised, homogenized in sterile PBS using SPEX SamplePrep 1600 MiniG for five minutes and bacterial CFU counts determined by serial dilution.

P. aeruginosa PAO1 = experiment: Minimum inhibitory concentration, broth microdilution; assay type: cell-based, Pseudomonas aeruginosa; settings: for MIC: Pseudomonas aeruginosa, PAO1
Experimental: as §1
The minimum inhibitory concentration (MIC) of each antibiotic was determined using the broth microdilution method in 96-well plates. […] Briefly, antibiotics were two-fold serially diluted in MHB or TCM prior to adding 1 × 10^6 CFU mL^-1 bacteria. Plates were incubated at 37°C for 22-24 hours. The MIC was recorded as the lowest antibiotic concentration with no visible growth and the median value of at least three biological replicates reported.

P. aeruginosa LESB58 [4] = experiment: Murine high density subcutaneous skin abscess model; assay type: in vivo, Pseudomonas aeruginosa; settings: day 3; for Area of dermoncecrosis, Mean: female Swiss Webster mice
Experimental: Mice used in this study were female Swiss Webster aged approximately 6-7 weeks and sourced from the University of Otago Biomedical Research Facility. […] The subcutaneous abscess infection model was performed as previously described ([Pletzer et al., 2017]) with a higher inoculum. Briefly, the fur on the back of each mouse was removed by shaving and chemical depilation. Antibiotics were tested for skin toxicity by injecting 50 μL of antibiotic suspension subcutaneously into naïve mice, and subsequent inspection of the skin for inflammation on the next day. P. aeruginosa LESB58 was grown to mid-log phase in dYT broth, washed twice in sterile PBS (Gibco, pH 7.4), and resuspended in PBS to ~1 x 10^8 CFU per 50 μL inoculum. The bacterial suspension (50 μL) was injected subcutaneously into the right side of the dorsum, followed one hour later by 50 μL of antibiotic treatment injected directly into the infected area. […] Combination treatments were administered as a single 50 μL injection containing both antibiotics. The concentration of each antibiotic in the combination was the same as when it was used alone. Progression of the infection was monitored daily, and abscess dimensions were measured on day three using a calliper. On day three, abscess tissue and pus were excised, homogenized in sterile PBS using SPEX SamplePrep 1600 MiniG for five minutes and bacterial CFU counts determined by serial dilution. In this model, synergy was defined as being a significant difference between the combination treated group and the amalgamated group of single drug treated animals ([Fantin and Carbon, 1992]; [Pletzer et al., 2018]).
Statistical analysis was performed using GraphPad Prism 9.5.1. Bacterial CFU and abscess size data from in vivo experiments was analysed by Kruskal-Wallace test with Dunn’s correction for multiple comparisons. The data was considered significant when p-values were below 0.05 or 0.01 as indicated.

[5] = LESB58, read-out: MIC in MHB, MHB, 20-24 h
[6] = LESB58, read-out: MIC in TCM, TCM (DMEM + 1% glucose + 5% FBS), 20-24 h
[7] = LESB58, TCM (DMEM + 1% glucose + 5% FBS)
[8] = LESB58, TCM (DMEM + 1% Glucose + 10% MHB)
[9] = Colistin, tigecycline and tobramycin groups, compared to the vehicle control

In the case of `NC(=O)[C@@H]1CC[C@@H]2CN1C(=O)N2OS(=O)(=O)O` [AVI, avibactam], the “MIC in MHB” value (P. aeruginosa LESB58 [1]; listed as Avibactam) is reported as “no antimicrobial activity”, the “MIC in MHB” value (P. aeruginosa LESB58 [1]; listed as avibactam) is reported as “not observed” and the MIC (P. aeruginosa LESB58 [1]; [5]) is reported as greater than 125 µg/mL. The MIC (P. aeruginosa LESB58 [1]; [6]) was 31.2 µg/mL, the “MIC in TCM” value (P. aeruginosa LESB58 [1]; listed as Avibactam) was “significant antimicrobial activity” and the “MIC in TCM” value (P. aeruginosa LESB58 [1]; listed as avibactam) was “had anti-pseudomonal activity”. For the same compound, the MBC (P. aeruginosa LESB58 [2]; LESB58, MHB) was greater than 125 µg/mL, the MBC (P. aeruginosa LESB58 [2]; [7]) was 62.5 µg/mL and the “Fold decrease in CAZ MIC, drug combined with CAZ” value (P. aeruginosa LESB58-lux) was 8. For the same compound, the “Fold decrease in other MIC, drug combined with CAZ” value (P. aeruginosa LESB58-lux) was 4, the “FICI, drug combined with CAZ” value (P. aeruginosa LESB58-lux; FICI <= 0.5 indicates synergy) was 0.38 and the “Highest tolerated dose tested” value [3] was 12 mg/mL.

In the case of `CC(C)(O/N=C(\C(=O)N[C@@H]1C(=O)N2C(C(=O)[O-])=C(C[n+]3ccccc3)CS[C@H]12)c1csc(N)n1)C(=O)O` [CAZ, ceftazidime], the “Fold increase MIC of CAZ or CZA” value (P. aeruginosa LESB58 [1]; MHB + 5% FBS compared to MHB) is reported as 8, the “Fold increase MIC of CAZ or CZA” value (P. aeruginosa LESB58 [1]; MHB + 5% FBS compared to MHB, listed as ceftazidime) is reported as “eight” and the “Fold change TCM vs MHB (MIC)” value (P. aeruginosa LESB58 [1]; MIC in TCM vs MIC in MHB) is reported as 4. The MIC (P. aeruginosa LESB58 [1]; LESB58, MHB + 5% FBS) was 250 µg/mL, the MIC (P. aeruginosa LESB58 [1]; [8]) was 62.5 µg/mL and the MIC (P. aeruginosa LESB58 [1]; [5]) was 31.2 µg/mL (≈ 57.2 µM). The MIC (P. aeruginosa LESB58 [1]; [6]) was 125 µg/mL, the “Fold increase MIC of CAZ or CZA” value (P. aeruginosa LESB58 [1]; TCM (DMEM + 1% Glucose + 10% MHB) compared to MHB) was 2 and the “Fold increase MIC of CAZ or CZA” value (P. aeruginosa LESB58 [1]; TCM (DMEM + 1% Glucose + 10% MHB) compared to MHB, listed as ceftazidime) was “two”. For the same compound, the “Fold increase MIC of CAZ or CZA” value (P. aeruginosa LESB58 [1]; TCM (DMEM + 1% glucose + 5% FBS) compared to MHB) was 4, the “Fold increase MIC of CAZ or CZA” value (P. aeruginosa LESB58 [1]; TCM (DMEM + 1% glucose + 5% FBS) compared to MHB, listed as ceftazidime) was “four” and the “Fold change TCM vs MHB (MIC)” value (P. aeruginosa PAO1; MIC in TCM vs MIC in MHB) was 8. It also gave an MIC (P. aeruginosa PAO1; read-out: MIC in MHB) of 3.13 µg/mL (≈ 5.73 µM), an MIC (P. aeruginosa PAO1; read-out: MIC in TCM) of 25 µg/mL (≈ 45.7 µM) and an MBC (P. aeruginosa LESB58 [2]; LESB58, MHB) greater than 500 µg/mL. For the same compound, the MBC (P. aeruginosa LESB58 [2]; LESB58, MHB + 5% FBS) was greater than 500 µg/mL, the MBC (P. aeruginosa LESB58 [2]; [8]) was 500 µg/mL and the MBC (P. aeruginosa LESB58 [2]; [7]) was greater than 500 µg/mL. For the same compound, the “Highest tolerated dose tested” value [3] was 50 mg/mL, the “Toxic (visible skin irritation, inflammation, blood vessels, swelling)” value [3] was 100 mg/mL and the “CFU per abscess, Fold change” value (P. aeruginosa LESB58 [4]; Azithromycin group, compared to the vehicle control) was -1.4. The “CFU per abscess, Geometric mean” value (P. aeruginosa LESB58 [4]; Azithromycin group, CAZ or CZA 50 mg/mL, AZM 6.25 mg/mL) was 2.6 × 10^8 CFU per abscess, the “Area of dermoncecrosis, Mean” value (P. aeruginosa LESB58 [4]; Azithromycin group, 50 μL s.c. into infected area 1 h after infection, CAZ or CZA 50 mg/mL, AZM 6.25 mg/mL, vehicle citric acid in saline) was 107.3 mm^2 and the “Area of dermoncecrosis, Mean” value (P. aeruginosa LESB58 [4]; Colistin, tigecycline and tobramycin groups (shared vehicle, CAZ and CZA mice), 50 μL s.c. 1 h after infection, CAZ or CZA 50, CST 1.25, TGC 2.5, TOB 2 mg/mL, vehicle 0.9% saline) was 85.3 mm^2. For the same compound, the “Area of dermoncecrosis, % reduction” value (P. aeruginosa LESB58 [4]; [9]) was 9.2%, the “CFU per abscess, Fold change” value (P. aeruginosa LESB58 [4]; [9]) was -1.8 and the “CFU per abscess, Geometric mean” value (P. aeruginosa LESB58 [4]; Colistin, tigecycline and tobramycin groups) was 1.3 × 10^8 CFU per abscess.
